Results: PMC11864979, “First-in-class ultralong-target-residence-time p38α inhibitors as a mitosis-targeted therapy for colorectal cancer” (Nature Cancer, 2025)
Values joined by “and” are separate entries in the source; they are usually repeats but may differ in a detail not shown here. Identical values can stand only once.

What was measured:
PDO9 = assay: cell viability in patient-derived CRC organoids PDO9; type: cell-based, human
Method: (§1) For in vitro treatment studies, organoids were mechanically dissociated and digested using TrypLE supplemented with 100 µg ml^−1 DNaseI and 10.5 µM Y-27632 dihydrochloride (Invitrogen) at 37 °C. A total of 1,000–2,000 single cells were plated per well in white 96-well plates (Greiner) in culture medium containing 10% GFR Matrigel or Cultrex BME. The treatment with doxycycline (5 µg ml^−1), pharmacological inhibitors or corresponding volumes of DMSO was started 24 h after plating. Doxycycline was obtained from Sigma-Aldrich. […] Cell viability was measured by means of CellTiter-Glo 3D or CellTiter-Glo 2.0 reagent (Promega) according to the manufacturers’ instructions and the Infinite M Plex reader (Tecan, i-control version 3.9.1 software). Results were normalized to vehicle (DMSO) or to shNC. For cell-doubling assays, the cell number was quantified at the corresponding time points using Guava EasyCyte flow cytometer (Luminex, CytoSoft v5.2 software).

LS 174T = assay: cell viability in human CRC cell line LS 174T; type: cell-based; details: for LS 174T Cell viability (%): 4 d
Method: The cells were cultured at 37 °C and 7% CO2 with RPMI (KAP^2D cells) or DMEM (other cell lines), supplemented with 10% FBS and penicillin–streptomycin. […] No commonly misidentified cell lines were used. Mycoplasma contamination was excluded by a PCR-based analysis.

KAP liver metastasis = assay: survival of wild-type mice with KAP liver metastasis; type: in vivo, mouse; details: single animals; 1 = event, 0 = censored; Fig. 6e
Method: (§3) Subcutaneous injection, splenic seeding or cecum injection of organoids was performed in 8–10-week-old C57BL/6 N/Crl, Rag2^−/− (B6.Cg-Rag2^tm1.1Cgn/J), or CB17 Scid beige (CB17.Cg-Prkdc^scidLyst^bg-J/Crl) mice, obtained from Charles River. The organoids were dissociated into single cells, washed with PBS and injected in a 1:1 mixture of PBS and Matrigel. For murine organoids, 1 × 10^5 cells were injected into the left and right flanks or the spleen capsule and 2 × 10^6 cells were injected into the cecum wall. For human organoids, 4 × 10^5 cells were injected into the flanks of CB17 Scid beige mice. For splenic seeding and cecum injection, mice were anaesthetized using ketamine (100 mg kg^−1, intraperitoneally) and xylazin (10 mg/kg, intraperitoneally) in NaCl and a small laparotomy below the thorax was performed.
(§4) No mice were excluded during treatment studies.

COLO 205 = assay: cell viability in human CRC cell line COLO 205; type: cell-based; details: for COLO 205 Cell viability (%): 4 d
Method: (§2) To generate KAP^2D cells, KAP organoids were isolated from Matrigel, fragmented by mechanical dissociation and plated without any extracellular matrix on common cell culture dishes. Phoenix-Eco packaging cells (CRL-3214), HCT-15 (CCL-225), HCT 116 (CCL-247), COLO 205 (CCL-222), LS 174T (CL-188), RKO (CRL-2577) and HT-29 (HTB-38) were obtained from the American Type Culture Collection. The cells were cultured at 37 °C and 7% CO2 with RPMI (KAP^2D cells) or DMEM (other cell lines), supplemented with 10% FBS and penicillin–streptomycin. KAP^2D cells were authenticated using PCR (Kras locus and Trp53 locus). Phoenix-Eco packaging cells and HCT-15, HCT 116, COLO 205, LS 174T, RKO and HT-29 cells were authenticated by the provider using short tandem repeat profiling. No commonly misidentified cell lines were used. Mycoplasma contamination was excluded by a PCR-based analysis.
as §1

subcutaneous KAP CRCs = assay: treatment of subcutaneous KAP tumors in wild-type mice; type: in vivo, mouse; details: Fig. 1j, individual tumors
Method: as §3, §4

KAP^2D cells = assay: annexin V apoptosis analysis in KAP^2D cells; type: cell-based, mouse; details: Fig. 5a
Method: Apoptosis was analyzed with the FITC annexin V apoptosis detection kit (Biolegend). Both measurements were performed with FACS Canto II (BD) and physical parameters were used to exclude cell debris and cell doublets.

HCT 116 = assay: cell viability in human CRC cell line HCT 116; type: cell-based; details: for HCT 116 Cell viability (%): 4 d
Method: as §2, §1

With `O=C1c2ccc(Nc3ccc(F)cc3F)cc2CCc2ccc(OC[C@H](O)CO)cc21` [SKL, skepinone-L, reference compound] the viability at 0.5 µM (PDO9; Homo sapiens, 96 h, read-out: Cell viability (%), PDO9, 0.5 µM, 4 d) was 92%, the “Cell viability (%)” value (PDO9; PDO9, 0.5 µM, 4 d, 0.5 µM) was 97.83% and 101.86% and the “Cell viability (%)” value (PDO9; PDO9, 1 µM, 4 days, 1 µM) was 97.80% and 79.73% and 102.56%. For the same compound, the “LS 174T Cell viability (%)” value (LS 174T; 0.0137 µM) was 99.40% and 93.05% and 101.28% and 92.22%, the “LS 174T Cell viability (%)” value (LS 174T; 0.0412 µM) was 92.09% and 86.77% and 91.37% and 88.68% and 85.53% and the “LS 174T Cell viability (%)” value (LS 174T; 0.1235 µM) was 82.00% and 78.88% and 87.71% and 84.96%. For the same compound, the “LS 174T Cell viability (%)” value (LS 174T; 0.3704 µM) was 80.28% and 77.65% and 86.62% and 87.42% and 86.17%, the “LS 174T Cell viability (%)” value (LS 174T; 1.1111 µM) was 91.92% and 90.66% and 93.51% and 91.38% and 95.21% and the “LS 174T Cell viability (%)” value (LS 174T; 3.3333 µM) was 99.97% and 97.60% and 100.77% and 96.22% and 98.37%. The “LS 174T Cell viability (%)” value (LS 174T; 10.0000 µM) was 102.64% and 93.49% and 96.83% and 90.78% and 93.45%, the viability at 0.0137 µM (LS 174T; Homo sapiens, LS174T, 96 h, read-out: LS 174T Cell viability (%), 0.0137 µM, 4 d) was 100% and the viability at 0.0412 µM (LS 174T; Homo sapiens, LS174T, 96 h, read-out: LS 174T Cell viability (%), 0.0412 µM, 4 d) was 94.4%. For the same compound, the viability at 0.1235 µM (LS 174T; Homo sapiens, LS174T, 96 h, read-out: LS 174T Cell viability (%), 0.1235 µM, 4 d) was 92.9%, the viability at 0.3704 µM (LS 174T; Homo sapiens, LS174T, 96 h, read-out: LS 174T Cell viability (%), 0.3704 µM, 4 d) was 89% and the viability at 1.1111 µM (LS 174T; Homo sapiens, LS174T, 96 h, read-out: LS 174T Cell viability (%), 1.1111 µM, 4 d) was 102%. For the same compound, the viability at 3.3333 µM (LS 174T; Homo sapiens, LS174T, 96 h, read-out: LS 174T Cell viability (%), 3.3333 µM, 4 d) was 107%, the viability at 10 µM (LS 174T; Homo sapiens, LS174T, 96 h, read-out: LS 174T Cell viability (%), 10.0000 µM, 4 d) was 98.7% and the Survival (KAP liver metastasis) was 15 d of treatment and 16 d of treatment and 18 d of treatment and 26 d of treatment and 28 d of treatment and 11 d of treatment. For the same compound, the “COLO 205 Cell viability (%)” value (COLO 205; 0.0137 µM) was 96.45% and 96.38% and 97.30% and 129.19% and 99.27% and 94.84%, the “COLO 205 Cell viability (%)” value (COLO 205; 0.0412 µM) was 127.57% and 100.82% and 92.20% and 93.68% and 91.56% and 87.30% and the “COLO 205 Cell viability (%)” value (COLO 205; 0.1235 µM) was 118.98% and 94.94% and 87.73% and 92.65% and 90.17% and 91.06%. For the same compound, the “COLO 205 Cell viability (%)” value (COLO 205; 0.3704 µM) was 128.00% and 91.92% and 96.35% and 88.32% and 91.46% and 92.15%, the “COLO 205 Cell viability (%)” value (COLO 205; 1.1111 µM) was 104.82% and 92.26% and 92.51% and 87.03% and 84.46% and 82.14% and the “COLO 205 Cell viability (%)” value (COLO 205; 3.3333 µM) was 118.94% and 101.69% and 108.96% and 89.84% and 86.56% and 82.40%. The “COLO 205 Cell viability (%)” value (COLO 205; 10.0000 µM) was 88.40% and 89.99% and 81.09% and 75.75% and 75.52%, the viability at 10 µM (COLO 205; Homo sapiens, COLO 205, 96 h, read-out: COLO 205 Cell viability (%), 10.0000 µM, 4 d) was 86.3% and the “Tumor volume (mm³)” value (subcutaneous KAP CRCs; day 0 of treatment) was 32.0 mm³ and 62.5 mm³ (2×) and 64.0 mm³ and 75.0 mm³ and 31.5 mm³ and 56.0 mm³ (3×) and 40.0 mm³. For the same compound, the “Tumor volume (mm³)” value (subcutaneous KAP CRCs; day 2 of treatment) was 56.0 mm³ and 100.0 mm³ and 75.0 mm³ and 108.0 mm³ and 36.0 mm³ and 62.5 mm³ and 64.0 mm³ (3×) and 48.0 mm³, the “Tumor volume (mm³)” value (subcutaneous KAP CRCs; day 4 of treatment) was 100.0 mm³ and 108.0 mm³ and 87.5 mm³ and 126.0 mm³ and 48.0 mm³ and 75.0 mm³ (4×) and 56.0 mm³ and the “Tumor volume (mm³)” value (subcutaneous KAP CRCs; day 6 of treatment) was 100.0 mm³ (2×) and 112.5 mm³ and 171.5 mm³ and 144.0 mm³ and 56.0 mm³ and 75.0 mm³ (2×) and 108.0 mm³ and 62.5 mm³. The “Tumor volume (mm³)” value (subcutaneous KAP CRCs; day 8 of treatment) was 144.0 mm³ and 180.0 mm³ (2×) and 162.0 mm³ and 72.0 mm³ and 108.0 mm³ and 126.0 mm³ and 87.5 mm³ and 112.5 mm³ (2×), the “Tumor volume (mm³)” value (subcutaneous KAP CRCs; day 10 of treatment) was 180.0 mm³ (2×) and 245.0 mm³ and 171.5 mm³ and 112.5 mm³ and 126.0 mm³ (3×) and 144.0 mm³ and 108.0 mm³ and the “Tumor volume (mm³)” value (subcutaneous KAP CRCs; day 12 of treatment) was 245.0 mm³ and 320.0 mm³ and 196.0 mm³ (3×) and 125.0 mm³ and 171.5 mm³ (2×) and 162.0 mm³ and 144.0 mm³. For the same compound, the “Annexin V+ cells” value (KAP^2D cells; 1 d of treatment) was 5.21% and 5.26% and 4.63% and 7.96% and 7.76% and 8.93%, the “Annexin V+ cells” value (KAP^2D cells; 2 d of treatment) was 9.26% and 10.60% and 6.13% and 6.98% and 6.69% and 8.97% and the “Annexin V+ cells” value (KAP^2D cells; 3 d of treatment) was 12.30% and 9.65% and 9.21% and 7.99% and 8.10%. The “Annexin V+ cells” value (KAP^2D cells; 4 d of treatment) was 14.90% and 13.30% and 12.30% and 11.90% and 13.00% and 16.60%, the “HCT 116 Cell viability (%)” value (HCT 116; 0.0137 µM) was 82.53% and 93.66% and 88.98% and 84.63% and the “HCT 116 Cell viability (%)” value (HCT 116; 0.0412 µM) was 87.30% and 84.90% and 78.78% and 77.22% and 83.29%. For the same compound, the “HCT 116 Cell viability (%)” value (HCT 116; 0.1235 µM) was 92.74% and 88.80% and 81.62% and 82.67% and 87.37%, the “HCT 116 Cell viability (%)” value (HCT 116; 0.3704 µM) was 94.27% and 95.66% and 82.63% and 82.17% and the “HCT 116 Cell viability (%)” value (HCT 116; 1.1111 µM) was 100.75% and 99.43% and 96.05% and 80.80% and 79.61% and 91.28%. For the same compound, the “HCT 116 Cell viability (%)” value (HCT 116; 3.3333 µM) was 95.32% and 96.31% and 81.21% and 79.37% and 87.78%, the “HCT 116 Cell viability (%)” value (HCT 116; 10.0000 µM) was 90.67% and 87.54% and 88.22% and 75.98% and 77.27% and 105.12% and the viability at 0.0137 µM (HCT 116; Homo sapiens, HCT-116, 96 h, read-out: HCT 116 Cell viability (%), 0.0137 µM, 4 d) was 85.5%.
